Laboratory results taken from US10849898B2, “Treatment of relapsed and/or refractory solid tumors and non-Hodgkin's lymphomas” (CELGENE QUANTICEL RESEARCH, INC., priority 2016, dated 2020).
Like-named read-outs stand apart in the source and are kept apart here.

Assays:
[1] = test system: NCI-H1417 SCLC xenograft; test: Efficacy in NCI-H1417 SCLC xenograft model (athymic nude mice); type: in vivo
[2] = test system: LU2514 SCLC PDX; test: Efficacy in LU2514 HuPrime SCLC patient derived xenograft; type: in vivo, mice; settings: both LU2514 studies
Experimental: Tumor growth inhibition analysis was performed on Day 28 post treatment, the last day of dosing.

[3] = test system: LXFS 573 SCLC PDX; test: Efficacy in LXFS 573 SCLC PDX model; type: in vivo, mice
[4] = test system: LU2527 lung NEC PDX; type: in vivo
[5] = test system: GA0087 gastric NEC PDX; type: in vivo
[6] = test system: MKL-1 hMCC xenograft; type: in vivo; settings: 5 mg/kg PO 5 on/2 off
[7] = test system: MS-1 hMCC xenograft; type: in vivo; settings: 5 mg/kg PO 5 on/2 off
[8] = test system: MKL-1 cells; test: Modulation of gene expression by RNA-seq; type: cell-based, human
Experimental: Libraries were sequenced on an Illumina NextSeq® 500 System (Illumina, San Diego, Calif.) using 75 base paired-end RNA sequencing. Sequenced reads were mapped to the hg19 human genome build and differential expression was determined by analysis of variance across all replicates relative to the vehicle control.
Sequenced reads were mapped to the hg19 human genome build using the Spliced Transcripts Alignment to a Reference (STAR) software tool (OAlexander Dobin, 2009-2016) and transcript counts were normalized using the Empirical Analysis of Digital Gene Expression Data in R (edgeR) and Differential gene expression analysis based on the negative binomial distribution (DESeq2) software tools (OBioconductor, 2003-2017). Differential expression was determined by analysis of variance across all replicates relative to the vehicle control.

[9] = Hemodynamic and ECG parameters in anesthetized guinea pigs; type: in vivo, Dunkin Hartley guinea pigs
Source text: Animals were monitored throughout the experiment.

[10] = Pharmacokinetics after IV and oral administration; type: in vivo, CD-1 mice; settings: Mouse, female, single IV 5 mg base/kg
Source text: (§1) Human PK parameters and exposures were predicted using allometric scaling. Mice and dogs were the species used for nonclinical toxicology assessment. […] Excretion of non-radiolabeled Compound A was studied in rats.

[11] = Pharmacokinetics after IV and oral administration; type: in vivo, Sprague Dawley rats; settings: rats
Source text: as §1

[12] = Metabolism in cryopreserved primary hepatocytes; type: in vitro ADME; settings: mouse, rat, dog, monkey, human
[13] = Excretion in bile duct cannulated rats; type: in vivo; settings: IV
[14] = 4-week oral gavage pivotal toxicity study with 4-week recovery in dogs (with ECG and toxicokinetics); type: in vivo, Beagle dogs
Experimental: The QTc interval was calculated using the Fridericia method.

[15] = test system: Salmonella typhimurium TA98 and TA 100 strains; test: Bacterial reverse mutation assay; type: cell-based; settings: up to 500 μg/mL; with and without S9
[16] = Exploratory toxicity study in mice; type: in vivo, CD-1 mice
Source text: Additional animals were included for TK evaluation.

[17] = test system: LXFS 573 SCLC PDX; settings: for SS, number of study survivors: Day 133, N=8
[18] = target: hERG potassium channel (Homo sapiens (Human), UniProt Q12809); settings: hERG current
[19] = Exploratory toxicity study in dogs
[20] = test system: NCI-H1417 SCLC xenograft; settings: 24 mg/kg Etoposide SC QD × 3
[21] = Etoposide at 24 mg/kg/day SC days 1-3 + Vehicle

Chain of hERG potassium channel (Q12809 whole entry): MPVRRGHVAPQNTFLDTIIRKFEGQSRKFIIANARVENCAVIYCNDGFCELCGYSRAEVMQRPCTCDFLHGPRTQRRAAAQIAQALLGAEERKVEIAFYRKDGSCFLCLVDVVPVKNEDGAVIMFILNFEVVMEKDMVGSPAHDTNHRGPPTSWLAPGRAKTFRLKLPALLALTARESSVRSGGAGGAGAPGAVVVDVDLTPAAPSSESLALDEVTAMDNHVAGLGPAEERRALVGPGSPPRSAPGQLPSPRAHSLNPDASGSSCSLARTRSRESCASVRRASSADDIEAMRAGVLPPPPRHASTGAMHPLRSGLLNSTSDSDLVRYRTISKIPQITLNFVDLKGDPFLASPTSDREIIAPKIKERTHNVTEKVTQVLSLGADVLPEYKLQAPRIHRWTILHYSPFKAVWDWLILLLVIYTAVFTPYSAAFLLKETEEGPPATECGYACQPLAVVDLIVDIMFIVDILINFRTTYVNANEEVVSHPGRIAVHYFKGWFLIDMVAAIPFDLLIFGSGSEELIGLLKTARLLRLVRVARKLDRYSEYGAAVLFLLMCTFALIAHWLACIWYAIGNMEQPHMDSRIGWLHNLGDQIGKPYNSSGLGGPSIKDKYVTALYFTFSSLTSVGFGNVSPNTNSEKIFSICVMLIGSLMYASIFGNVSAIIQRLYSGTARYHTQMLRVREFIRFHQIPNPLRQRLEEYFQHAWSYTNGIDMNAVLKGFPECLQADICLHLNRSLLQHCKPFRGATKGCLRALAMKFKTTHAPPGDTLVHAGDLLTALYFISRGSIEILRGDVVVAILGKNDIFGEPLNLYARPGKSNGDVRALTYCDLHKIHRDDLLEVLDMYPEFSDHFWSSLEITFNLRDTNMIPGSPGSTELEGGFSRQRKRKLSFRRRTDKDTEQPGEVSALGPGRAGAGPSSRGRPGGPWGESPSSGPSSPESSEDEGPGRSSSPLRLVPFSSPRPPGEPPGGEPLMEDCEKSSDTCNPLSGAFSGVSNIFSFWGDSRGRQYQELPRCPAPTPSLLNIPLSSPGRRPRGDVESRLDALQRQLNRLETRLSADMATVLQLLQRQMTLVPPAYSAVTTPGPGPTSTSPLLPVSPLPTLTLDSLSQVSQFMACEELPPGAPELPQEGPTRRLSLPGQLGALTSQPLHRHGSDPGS

COc1ccc(-c2c(-c3ccc(C#N)c(F)c3)nc(N3CCC(N)CC3)n(C)c2=O)cc1F [Compound A, 4-[2-(4-amino-piperidin-1-yl)-5-(3-fluoro-4-methoxy-phenyl)-1-methyl-6-oxo-1,6-dihydro-pyrimidin-4-yl]-2-fluoro-benzonitrile]
mean body weight gain by end of study ([1]; 2.5 mg base/kg PO QD×65): 1%
mean body weight gain by end of study ([1]; 5 mg base/kg PO QD×65): 7.5%
tolerability ([1]; 2.5 or 5 mg base/kg PO QD×65): well tolerated
mean body weight losses [2]: < 10%
Median Tumor Volumes Day 1 ([3]; 5 mg base/kg PO QD × 28): 108.4 mm^3
TGI end of study (Day 28) ([3]; 5 mg base/kg oral): 78%
Median Tumor Volumes Day 1 ([3]; 7.5 mg base/kg PO QD × 28): 113.2 mm^3
Median Tumor Volumes Day 1 ([3]; 10 mg base/kg PO QD × 28): 113.8 mm^3
Median Tumor Volumes Day 0 ([4]; 1.5 mg base/kg PO QD × 46): 148.2 mm^3
Median Tumor Volumes Day 0 ([4]; 5 mg base/kg PO QD × 46): 151.8 mm^3
Median Tumor Volumes Day 0 ([5]; Group 2, 1.5 mg base/kg PO QD × 53): 128.9 mm^3
Median Tumor Volumes Day 0 ([5]; Group 3, dose printed 1.5 mg base/kg (text: 5 mg/kg) PO QD × 53): 127.6 mm^3
Median Tumor Volumes Day −3 [6]: 65 mm^3
Median Tumor Volumes Day −3 [7]: 49 mm^3
downregulated genes changed in both hMCC lines at both concentrations (of 4303) ([8]; MKL-1 and MS-1, 10 and 100 nM, 3 days): 17 genes
ST18 and FREM2 gene expression change (upregulated, dose-dependent) ([8]; both hMCC lines, 10 and 100 nM): at least 2 fold
maximum suppression of HR vs vehicle ([9]; 20 mg base/kg IV, 9 minutes into 10-minute infusion): 19%
effect on MAP or its components ([9]; IV 5-20 mg base/kg vs time-matched vehicle): No notable effect
QTcB interval increase at end of monitoring period ([9]; after escalating IV doses): 10%
clearance ([10]; CD-1, plasma): 39 mL/min/kg
Vss [10]: 7.31 L/kg
systemic clearance [11]: greater than liver blood flow
metabolic stability in hepatocytes [12]: greater in rat and dog followed by human and monkeys while being least stable in mouse hepatocytes
dose excreted intact in urine ([13]; 24 hours): 8.5 % of dose
dose excreted intact in 24 hours (urine + bile) ([13]; bile duct cannulated rats): 26.3 % of the dose
animals euthanized moribund ([14]; 0.375 mg base/kg QW): 1 male
animals euthanized moribund ([14]; 0.75 mg base/kg QW): 2 males and 1 female
animals euthanized moribund ([14]; 1.5 mg base/kg QW): 3 males and 4 females
recovery of findings after 4-week treatment-free period ([14]; dog, in vivo): complete recovery
animals euthanized moribund ([14]; weekly oral administration, study Days 13 to 23): 11 animals
mutagenicity [15]: negative
increase in platelets on Day 8 vs end of first dosing period ([16]; 10 mg/kg/day 5 days on/2 days off): > 2 fold
greatest reduction in neutrophil counts vs controls and pre-study values ([16]; 5 days on/2 days off schedule): approximately 90%
circulating platelets at end of study ([16]; all dose levels): reduced
tumor volume of survivor at study end ([17]; Compound A 1 mg/kg in combination with etoposide 24 mg/kg): 1430 mm3
survivors on Day 133 ([17]; Compound A 1 mg/kg in combination with etoposide 24 mg/kg, n=8): 1 animals
MTV of survivors on Day 133 ([17]; Compound A 2.5 mg/kg in combination with etoposide 24 mg/kg): 1121 mm3
survivors on Day 133 ([17]; Compound A 2.5 mg/kg in combination with etoposide 24 mg/kg, n=8): 3 animals
MTV of survivors on Day 133 ([17]; Compound A 5 mg/kg in combination with etoposide 24 mg/kg): 121 mm3
survivors on Day 133 ([17]; Compound A 5 mg/kg in combination with etoposide 24 mg/kg, n=8): 8 animals
Median TTE ([17]; Compound A at 5 mg/kg/day PO days 1-133): 133 days
SS, number of study survivors ([17]; Compound A at 5 mg/kg/day): 7
study survivors on Day 133 ([17]; Compound A monotherapy 5 mg/kg, n=8): seven
Hill coefficient [18]: 1.2
Compound A-related effects ([19]; 0.25 mg/kg/dose QOD): generally no Compound A-related effects
body weight loss of moribund female ([19]; 0.5 mg/kg/day 5 days on/2 days off, Day 12): 10.8%
mortality ([19]; 0.5 mg/kg/day 5 days on/2 days off, one female, Day 12): sacrificed moribund

COc1cc([C@@H]2c3cc4c(cc3[C@@H](O[C@@H]3O[C@@H]5CO[C@@H](C)O[C@H]5[C@H](O)[C@H]3O)[C@H]3COC(=O)[C@H]23)OCO4)cc(OC)c1O [Etoposide, etoposide, reference compound]
SS, number of study survivors ([17]; Etoposide at 24 mg/kg/day + Vehicle): 0 (na)
Median TTE [17, 21]: 63 days
T-C [17, 21]: 21 days
% TGD ([17]; etoposide monotherapy 24 mg/kg): 50%
TGD ([17]; etoposide monotherapy 24 mg/kg): 21 days
Median TTE ([17]; etoposide monotherapy 24 mg/kg SC daily Days 1-3): 63 days
% TGD [20]: 97%
Median TTE [20]: 50 days
T − C [20]: 24 days
